Where “and” joins values, the source holds several entries; their conditions need not be identical. Identical values can stand only once. Inconclusive results and toxic doses are left out.
Tested on: BDF1 mice, P388 leukemia ip, median survival T/C
Test: NCI In Vivo Anticancer Drug Screen. Data for tumor model P388 Leukemia (intraperitoneal) in B6D2F1 (BDF1) mice
Conditions: endpoint: median survival time, higher = longer survival
Summary of the method: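 Steps: implant the tumour, treat one group with compound and another with vehicle, record survival, then divide treated by control.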

[1] = dose: 50.0 mg/kg/injection, schedule: Q01DX009 (ip), vehicle: Klucel (hydroxypropylcellulose) (HPC)
[2] = dose: 100.0 mg/kg/injection, schedule: Q01DX009 (ip), vehicle: Klucel (hydroxypropylcellulose) (HPC)
[3] = dose: 100.0 mg/kg/injection, schedule: Q04DX003 (ip), vehicle: saline sonified
[4] = dose: 200.0 mg/kg/injection, schedule: Q01DX009 (ip), vehicle: Klucel (hydroxypropylcellulose) (HPC)
[5] = dose: 400.0 mg/kg/injection, schedule: Q04DX003 (ip), vehicle: saline sonified
[6] = dose: 50.0 mg/kg/injection, schedule: Q01DX009 (ip), vehicle: saline with Tween-80
[7] = dose: 100.0 mg/kg/injection, schedule: Q01DX009 (ip), vehicle: saline with Tween-80
[8] = dose: 100.0 mg/kg/injection, schedule: Q04DX003 (ip), vehicle: saline with Tween-80
[9] = dose: 50.0 mg/kg/injection, schedule: Q04DX003 (ip), vehicle: Klucel (hydroxypropylcellulose) (HPC)
[10] = dose: 100.0 mg/kg/injection, schedule: Q04DX003 (ip), vehicle: Klucel (hydroxypropylcellulose) (HPC)
[11] = dose: 200.0 mg/kg/injection, schedule: Q04DX003 (ip), vehicle: Klucel (hydroxypropylcellulose) (HPC)
[12] = dose: 1.25 mg/kg/injection, schedule: Q01DX010 (ip), vehicle: saline
[13] = dose: 2.5 mg/kg/injection, schedule: Q01DX010 (ip), vehicle: saline
[14] = dose: 10.0 mg/kg/injection, schedule: Q01DX010 (ip), vehicle: saline
[15] = dose: 200.0 mg/kg/injection, schedule: Q04DX002 (ip), vehicle: saline with Tween-80
[16] = dose: 80.0 mg/kg/injection, schedule: Q04DX003 (ip), vehicle: saline
[17] = dose: 25.0 mg/kg/injection, schedule: Q04DX003 (ip), vehicle: Klucel (hydroxypropylcellulose) (HPC)
[18] = dose: 200.0 mg/kg/injection, schedule: Q04DX003 (ip), vehicle: saline with Tween-80
[19] = dose: 400.0 mg/kg/injection, schedule: Q04DX003 (ip), vehicle: saline with Tween-80
[20] = dose: 25.0 mg/kg/injection, schedule: Q01DX009 (ip), vehicle: Klucel (hydroxypropylcellulose) (HPC)

CC1C(=O)OC2CCN3CC4OC4(COC(=O)C(C)(O)C1(C)O)C23 (stereo not given)
T/C [1]: 95 % of control
T/C [2]: 95 % of control
T/C [3]: 108 % of control
T/C [4]: 100 % of control
T/C [5]: 95 % of control

CCCCCC(CN(C)C)C(=O)/C=C/c1cccc(O)c1 (stereo not given)
T/C [6]: 106 % of control
T/C [7]: 98 % of control

CNC(=S)N/N=C/c1ccc([N+](=O)[O-])s1
T/C (dose: 400.0 mg/kg/injection, schedule: Q01DX009 (ip), vehicle: saline with Tween-80): 94 % of control

COc1cc(Br)c(/C=C/[N+](=O)[O-])cc1OC
T/C (dose: 12.5 mg/kg/injection, schedule: Q04DX003 (ip), vehicle: saline with Tween-80): 105 % of control
T/C (dose: 25.0 mg/kg/injection, schedule: Q04DX003 (ip), vehicle: saline with Tween-80): 105 % of control and 107 % of control
T/C (dose: 50.0 mg/kg/injection, schedule: Q04DX003 (ip), vehicle: saline with Tween-80): 113 % of control
T/C [8]: 123 % of control

[O-][n+]1c(-c2ccccc2)c(C(O)c2ccccc2)nc2ccccc21 (stereo not given)
T/C (dose: 100.0 mg/kg/injection, schedule: Q01DX001 (ip), vehicle: saline with Tween-80): 105 % of control
T/C (dose: 200.0 mg/kg/injection, schedule: Q01DX001 (ip), vehicle: saline with Tween-80): 94 % of control
T/C (dose: 400.0 mg/kg/injection, schedule: Q01DX001 (ip), vehicle: saline with Tween-80): 96 % of control

CC1CN(N)CC(C)N1Cc1ccccc1 (stereo not given)
T/C (dose: 3.12 mg/kg/injection, schedule: Q04DX003 (ip), vehicle: water): 98 % of control
T/C (dose: 6.25 mg/kg/injection, schedule: Q04DX003 (ip), vehicle: water): 104 % of control
T/C (dose: 12.5 mg/kg/injection, schedule: Q04DX003 (ip), vehicle: water): 108 % of control
T/C (dose: 25.0 mg/kg/injection, schedule: Q04DX003 (ip), vehicle: water): 113 % of control

CN(C)N=Nc1ccc(NC(N)=O)cc1
T/C (dose: 25.0 mg/kg/injection, schedule: Q04DX003 (ip), vehicle: saline + Tween-80 + alcohol): 112 % of control

COc1cc(C)c(Cl)c(C)c1C(C)=O
T/C [9]: 104 % of control
T/C [10]: 95 % of control
T/C [11]: 86 % of control

C1OCC2[CH2][Hg][S][Hg][CH2]C1O2
T/C [12]: 109 % of control
T/C [13]: 104 % of control
T/C (dose: 5.0 mg/kg/injection, schedule: Q01DX010 (ip), vehicle: saline): 109 % of control
T/C [14]: 122 % of control

CCCCCCCCCCCCCC/[N+]([O-])=C/c1ccc([N+](=O)[O-])o1
T/C (dose: 6.25 mg/kg/injection, schedule: Q04DX002 (ip), vehicle: saline with Tween-80): 91 % of control
T/C (dose: 12.5 mg/kg/injection, schedule: Q04DX002 (ip), vehicle: saline with Tween-80): 100 % of control
T/C (dose: 25.0 mg/kg/injection, schedule: Q04DX002 (ip), vehicle: saline with Tween-80): 87 % of control
T/C [15]: 88 % of control

Cc1c2ccccc2cc2cccc[n+]12
T/C (dose: 0.63 mg/kg/injection, schedule: Q01DX010 (ip), vehicle: saline): 100 % of control
T/C [12]: 100 % of control
T/C [13]: 105 % of control and 120 % of control
T/C [14]: 150 % of control
T/C (dose: 40.0 mg/kg/injection, schedule: Q04DX003 (ip), vehicle: saline): 150 % of control
T/C [16]: 100 % of control

COc1ccc(C=O)c(Cl)c1OC
T/C (dose: 12.0 mg/kg/injection, schedule: Q04DX003 (ip), vehicle: Klucel (hydroxypropylcellulose) (HPC)): 90 % of control
T/C [17]: 100 % of control
T/C [9]: 95 % of control
T/C (dose: 100.0 mg/kg/injection, schedule: Q01DX001 (ip), vehicle: Klucel (hydroxypropylcellulose) (HPC)): 113 % of control
T/C [10]: 109 % of control
T/C (dose: 200.0 mg/kg/injection, schedule: Q01DX001 (ip), vehicle: Klucel (hydroxypropylcellulose) (HPC)): 109 % of control
T/C [11]: 104 % of control
T/C (dose: 400.0 mg/kg/injection, schedule: Q01DX001 (ip), vehicle: Klucel (hydroxypropylcellulose) (HPC)): 113 % of control

O=S(=O)(O)C1CCCCC1O (stereo not given)
T/C (dose: 100.0 mg/kg/injection, schedule: Q04DX002 (ip), vehicle: saline with Tween-80): 98 % of control
T/C [15]: 101 % of control

CN(C)CCOCN1COCC1(C)C
T/C [6]: 120 % of control

Cc1sc([N+](=O)[O-])cc1[N+](=O)[O-]
T/C [17]: 91 % of control
T/C [9]: 95 % of control
T/C [10]: 91 % of control

CCCn1c2ccccc2c2ccccc21
T/C [2]: 120 % of control
T/C [4]: 100 % of control
T/C (dose: 400.0 mg/kg/injection, schedule: Q01DX009 (ip), vehicle: Klucel (hydroxypropylcellulose) (HPC)): 95 % of control

NC(=O)c1cc([N+](=O)[O-])ccc1N
T/C [3]: 115 % of control
T/C (dose: 200.0 mg/kg/injection, schedule: Q04DX003 (ip), vehicle: saline sonified): 110 % of control
T/C [5]: 120 % of control

CC(=O)OC(c1ccccc1)C(Cl)(Cl)Cl (stereo not given)
T/C [8]: 100 % of control
T/C [18]: 105 % of control
T/C [19]: 110 % of control

O=P(Cc1ccccc1)(C(O)c1ccccc1)C(O)c1ccccc1 (stereo not given)
T/C [9]: 100 % of control
T/C [10]: 100 % of control
T/C [11]: 100 % of control

Nc1cc(N)nc(S(=O)O)n1
T/C [20]: 95 % of control and 111 % of control and 120 % of control
T/C [17]: 104 % of control
T/C [1]: 95 % of control
T/C [9]: 95 % of control
T/C [2]: 90 % of control and 110 % of control
T/C [10]: 100 % of control

OCCN1CCN(CC/C=C2/c3ccccc3Sc3ccc(C(F)(F)F)cc32)CC1
T/C (dose: 5.0 mg/kg/injection, schedule: Q01DX009 (ip), vehicle: saline): 101 % of control
T/C (dose: 10.0 mg/kg/injection, schedule: Q01DX009 (ip), vehicle: saline): 101 % of control
T/C [16]: 97 % of control

C=Cn1cnc2c(N)ncnc21
T/C [8]: 103 % of control
T/C [18]: 113 % of control
T/C [19]: 106 % of control

O=C(NO)c1ccccn1
T/C (dose: 130.0 mg/kg/injection, schedule: Q01DX010 (ip), vehicle: water): 109 % of control
T/C (dose: 200.0 mg/kg/injection, schedule: Q01DX010 (ip), vehicle: water): 100 % of control

C=C1C(=O)OC2CC(C)C3CC(=O)C(C)=C3C(O)C12 (stereo not given)
T/C [20]: 120 % of control
T/C [1]: 112 % of control

O=C(/C(=C\c1ccccc1)CN1CCOCC1)c1ccc(Br)cc1
T/C [20]: 104 % of control
T/C (dose: 37.5 mg/kg/injection, schedule: Q04DX003 (ip), vehicle: Klucel (hydroxypropylcellulose) (HPC)): 108 % of control
T/C [1]: 108 % of control
T/C (dose: 75.0 mg/kg/injection, schedule: Q04DX003 (ip), vehicle: Klucel (hydroxypropylcellulose) (HPC)): 104 % of control
T/C (dose: 150.0 mg/kg/injection, schedule: Q04DX003 (ip), vehicle: Klucel (hydroxypropylcellulose) (HPC)): 108 % of control

Cc1ccc(S(=O)(=O)/C=C/c2ccccc2)cc1
T/C [6]: 100 % of control
T/C [7]: 100 % of control
T/C (dose: 200.0 mg/kg/injection, schedule: Q01DX009 (ip), vehicle: saline with Tween-80): 103 % of control

Nc1ncc([N+](=O)[O-])cn1
T/C [2]: 95 % of control
T/C [4]: 90 % of control

NC1=Nc2cccc3cccc(c23)N1
T/C (dose: 12.5 mg/kg/injection, schedule: Q01DX009 (ip), vehicle: saline with Tween-80): 92 % of control
T/C (dose: 12.5 mg/kg/injection, schedule: Q04DX003 (ip), vehicle: Klucel (hydroxypropylcellulose) (HPC)): 109 % of control
T/C (dose: 25.0 mg/kg/injection, schedule: Q01DX009 (ip), vehicle: saline with Tween-80): 100 % of control
T/C [17]: 100 % of control
T/C [6]: 100 % of control
T/C [9]: 109 % of control

From PubChem BioAssay AID328 (DTP/NCI, 2004)
